Read-outs that look alike come from different tables or passages of the source.
System: phosphorylated fos-GHRct (fos-GHRct/Jak2 signaling)
Test: Cell based primary screen: immune fluorescence (anti-GHR, anti-pY, anti-pJak2, anti-pSTAT5) of fos-GHRct-transfected γ2A iJak2 cells
Parameters: species or system human
Details: for phosphorylation of STAT5 (pSTAT5) / phosphorylation of fos-pGHRct (pY) / phosphorylation of the active site of Jak2 (p1007/1008): concentration curves, Fig S10
Method: Drug handling and cell-based assays are detailed in Supplementary Data 1 , automation. High-Content StratoMineR ([35]). After incubation with the compounds, the cells were fixed and the fluorescence (anti-GHR, anti-pY, anti-pJak2, anti-pSTAT5) was quantitated.
As it was unknown whether the GH/IGF1 axis is druggable, we designed a broad strategy based on our previous studies in which soluble fos-zipped GHR cytosolic tails (fos-GHRct) can serve as signaling complexes if co-expressed with Jak ([32], [39]). Fos-GHRct expressed without Jak2 is immediately degraded by the ubiquitin pathway. Phosphorylated fos-GHRct (fos-pGHRct) detaches from Jak2 and unzips. Only unzipped fos-pGHRct are protected from proteasomal degradation and accumulate in the cell. […] For 6 scenarios the signal will be decreased: (1) inhibition of Jak2 kinase activity, (2) inhibition of fos-GHRct expression, (3) inhibition of the fos-GHRct : Jak2 interaction, (4) increased degradation of fos-pGHRct, (5) increased degradation of Jak2, and (6) dephosphorylation of fos-pGHRct ([32], [39]).
Figure 1 Diagram of the primary screen. […] If fos-GHRct and Jak2 bind via FERM and box-1, Jak2 gets activated and phosphorylates itself, the dimerized fos-GHRct and STAT5b. After phosphorylation of fos-GHRct, Jak2 and STAT5, the complex dissociates. As fos-pGHRct is protease-resistant, it accumulates in the cells. Unphosphorylated fos-GHRct is rapidly degraded. Steady state levels of fos-pGHRct are lower if one of the 6 scenarios is valid. The cell-based assay was performed in γ2A cells carrying inducible Jak2 (iJak2) or binding-deficient iJak2 Y119E (as control) ( Figure 2 ). […]
1. Cell based primary screen
The assay was based on Fos-zippered GHR cytosolic tails (fos-GHRct) subsequently acting […]
Fig S1A. Immune Fluorescence staining of γ2a Fig S1B. Immune Fluorescence staining of γ2a monoclonal cell line stably transfected with an monoclonal cell line stably transfected with an inducible Jak2 WT expression construct. inducible Jak2 Y119E expression construct. aim we used a human fibroblast cell line
From this line we generated doxycycline inducible Jak2 clones, expressing either wild type Jak2 or Y119E mutant Jak2 whose FERM domain does […]
To establish a sensitive test, sufficient […]
control the system, we used fos-GHRct mutated in box-1 or the cell line expressing mutant (Y119E) Jak2. The box-1 motif is the binding site of Jak2 in GHR; mutation of this motif (all four proline into alanine) is known to reduce the binding between GHR and Jak2. In the primary screen we measured 4 different signals: fos-GHRct (anti-GHR), tyrosine phosphorylated fos-GHRct (anti-pY), tyrosine phosphorylated Jak2 (anti-pY or anti- […]
inhibition of either fos-GHRct stabilization or fos-GHRct synthesis, are considered positive.
Immunoblots are not appropriate for high throughput screening. Using fos-GHRct-transfected cells as in Fig. S3 and pY-specific primary antibodies, we developed a high throughput screening assay based on pY-fos-GHRct immune fluorescent detection in 384-well plates with automated microscopy. […]
panel). From left to right: Dapi staining to visualize nuclei, fos-GHRct staining: GHRtails are detected by […]

[1] = Homo sapiens, Figure 4, ranked according inhibitory effects on GHR signaling and/or cell proliferation, read-out: IC50
[2] = Homo sapiens, Table_2.xlsx, second analogue set, read-out: GHR INHIBITORS, BM#, IC50

Compound	IC50 [1]	IC50 [2]	phosphorylation of STAT5 (pSTAT5)	phosphorylation of fos-pGHRct (pY)	phosphorylation of the active site of Jak2 (p1007/1008)	further results
Cc1nc(N)nc(N)c1/C=C/C1(c2ccc(C(F)(F)F)cc2)CC1 [BM001]	20 to 30 nM	–	–	–	–	EC50 (Homo sapiens, Table_2.xlsx, cell prints EC50, read-out: GHR INHIBITORS, BM#, EC50): 20 to 30 nM
Cc1c(-c2cccc(C#N)c2)ccc2nc(N)nc(N)c12 [BM002]	–	50 nM	–	–	–	–
COc1cc(CN(C)c2ccc3nc(N)nc(N)c3c2)cc(OC)c1OC [BM003]	–	50 nM	–	–	–	–
Cc1nc(N)nc(N)c1C#CC1(c2ccc(Cl)cc2)CC1 [BM004]	80 nM	–	lowered	lowered	lowered	IC50 (Homo sapiens, primary screen protocol, 20 h, read-out: IC50, dose-response on pY levels (fos-GHRct, pJak2, pSTAT5)): ~200 nM; IC50, dose-response on pY levels (fos-GHRct, pJak2, pSTAT5) (primary screen protocol, 20 h): comparable to that of Ruxolitinib
CCOc1cccc2nc(N)nc(N)c12 [BM012]	–	–	lowered	lowered	lowered	IC50 (Homo sapiens, Table_1.xlsx, first analogue set, read-out: GHR INHIBITORS, BM#, (IC50)): 900 nM
N#CC[C@H](C1CCCC1)n1cc(-c2ncnc3[nH]ccc23)cn1 [Ruxolitinib, reference compound]	–	–	–	–	–	pY signal at plateau of dose-response: close to zero

Reference: article PMC9365994, “Small molecules to regulate the GH/IGF1 axis by inhibiting the growth hormone receptor synthesis” (Frontiers in Endocrinology, 2022)
